According to patent publication US20230026163A1, “ANTICANCER COMPOUND AND MEDICAL USE THEREOF” (ASCENTAWITS PHARMACEUTICALS, LTD., priority 2019, published 2023):

What was measured:
[1] = Hepatomicrosome stability, mouse; settings: for Remaining percentage after 30 minutes: Mouse, 2 μM
Description: (§1) 1a) With NADPH: 10 μL of 20 mg/mL of hepatomicrosome and 40 μL of 10 mM of NADPH were added to medium. The final concentrations of hepatomicrosome and NADPH were 0.5 mg/mL and 1 mM, respectively.
(§2) 1b) Without NADPH: 10 μL of 20 mg/mL hepatomicrosome and 40 μL of ultra-pure H2O were added to medium. The final concentration of hepatomicrosome was 0.5 mg/mL.
(§3) 3) 3) Aliquots of 50 μL from the reaction solutions at 0 minute and 30 minutes were taken. The reaction solutions were stopped by adding 4 volumes of cold acetonitrile and 4 internal standards (IS internal standard, 100 nM of Alprazolam, 200 nM of caffeine, 200 nM of Labetalol, and 2 μM of Ketoprofen) to stop the reaction solution. The samples were centrifuged at 3,220 g for 40 minutes. Aliquots of 100 μL of the supernatants were mixed with 100 μL of ultra-pure H2O. Then, the mixtures were used for LC-MS/MS analysis. All experiments were performed in duplicate. The test results were as follow.

[2] = Hepatomicrosome stability, rat; settings: for Remaining percentage after 30 minutes: Rat, 2 μM
Description: as §1, §2, §3

O=[N+]([O-])c1ccc(C(OP(=O)(N2CC2)N2CC2)C(F)(F)F)c2ccccc12 (stereo not drawn) [Compound 01]
Remaining percentage after 30 minutes ([1]; with NADPH): 102.89% | Remaining percentage after 30 minutes ([1]; without NADPH): 103.07% | Stability in hepatomicrosomes (conclusion) ([1]; mice): relatively stable | Remaining percentage after 30 minutes ([2]; with NADPH): 71.05% | Remaining percentage after 30 minutes ([2]; without NADPH): 111.15% | Stability in hepatomicrosomes (conclusion) ([2]; rat): unstable
